This is an account of results in US12053533B2, “Fluorescent probe for cyclooxygenase-2” (The Board of Trustees of the University of Illinois, priority 2020, dated 2024).

The test system of data set [1] is COX-2 activity in RAW 264.7 macrophage cells. In words: Flow cytometry of LPS-induced COX-2 activity in RAW 264.7 macrophages. The class given is cell-based, mouse. Particulars: CoxFluor 10 μM. The source says:
Flow Cytometry of Lipopolysaccharide-induced COX-2 Expression in RAW 264.7 Macrophages. […] After staining, cells were pelleted using the aforementioned procedure and were resuspended in PBS. […] Replicate numbers correspond to biological replicates.

Data set [2] in a line: Analyte selectivity (reactive species). The following applies: CoxFluor 10 μM, analytes up to 500 μM (50 equiv), 4 h. As for the experimental part:
Analyte Selectivity. Response of CoxFluor (10 μM) to a variety of reactive oxygen, nitrogen, carbonyl, metals, and sulfur species (1, 3, 5, or 50 equiv) were monitored using the plate reader assay. Total volume of the reaction mixture was maintained at 190 μL in 100 mM Tris-HCl buffer (pH 8.0) with a final DMSO concentration of 1.26% (v/v). Assays for CoxFluor or resorufin were initiated by the addition of the analytes and the reactions were incubated at room temperature for up to 4 h. Measurements were recorded at a range of time points, and the relative turn-on was determined relative to a buffer control containing 10 μM CoxFluor or resorufin. Superoxide anion was added as a solution of potassium superoxide in DMSO. Nitroxyl was generated in situ from a solution of Angeli's salt in degassed 10 mM potassium hydroxide solution. Angeli's salt was prepared according to previously reported literature (Methods Enzymol. 1999, 301, 279). NO was generated in situ from a solution of MAHMA-NONOate in degassed 10 mM potassium hydroxide. Peroxynitrite was prepared according to previously reported literature (Anal. Biochem. 2006, 354, 165). All metals were prepared from their chloride salt. Formaldehyde solutions were prepared by depolymerizing saturated aqueous solutions at 100° C. before use. […]

A further data set deals with HEK 293T cells. As to the kind of experiment: Cell viability (trypan blue exclusion and MTT) in HEK 293T cells. The following applies: 6 h incubation. The class given is cell-based. As for the experimental part: Trypan Blue Exclusion Cytotoxicity Assay. 6-well plates were seeded with 300,000 cells per well (2 mL of 150,000 cells/mL) and incubated at 37° C. with 5% CO2 for 48 to 72 h (˜60-80% confluent). Media was removed and replaced with either 5, 10, or 25 μM CoxFluor in fresh serum-free DMEM media (1.25% DMSO v/v final concentration). […] The trypsin was quenched with the addition of 1.8 mL DMEM media containing 10% FBS and the cells were mixed thoroughly before diluting 1:1 with trypan blue (0.4% in PBS w/v). Percent viability was measured using a Countess® II FL Automated Cell Counter (Thermo Fisher Scientific), where the parameters were optimized to identify live and dead cells. Viability was calculated by the relative to the vehicle control.
MTT Cytotoxicity Assay. […] The media was removed at various time points (3 or 6 h) and replaced with 200 μL 20:1 mixture of FBS-free DMEM and (3-(4,5-dimethylthiazol-2-yl)-2,5-diphenyl-tetrazolium bromide (MTT, 5 mg/mL stock in PBS). The cells were incubated for 4 h under the same conditions and then the medium was removed and replaced with DMSO (200 μL/well). The absorbance of each well was recorded after a 1:5 dilution in DMSO at 555 nm on a microplate reader. Viability was calculated by the absorbance relative to the vehicle control.

As for `CCCCC/C=C\C/C=C\C/C=C\C/C=C\CCCC(=O)N1c2ccc(O)cc2Oc2cc(O)ccc21` [CoxFluor], the “increase in median fluorescence, cells activated 19 hr compared to 4 hr” value in data set [1] (after BSO pre-treatment) is 1.6 fold. In data set [1] (without GSH depletion), the “increase in activity after 19 hr LPS-activation relative to 4 hr” value was 1.2 fold. In data set [2], the “activation by reactive oxygen/nitrogen species and other oxidants and reductants” value is “no undesirable activation”. Moreover, in the data set on HEK 293T cells, the cell viability entry was “suitable viability”.
